Data set [1] has as its system CNE. The data set can be described thus: Antiproliferation activity against human CNE1 cells assessed as reduction in cell viability incubated for 48 hrs by MTT assay. Type of data set: functional, cell-based.
Data set [2] relates to C6661. The data set can be described thus: Antiproliferation activity against human C6661 cells assessed as reduction in cell viability incubated for 48 hrs by MTT assay. In kind it is functional, cell-based.
Data set [3] relates to C6661. In words: Antimetastatic activity in human C6661 cells assessed as cell invasion at 10 umol/l after 48 hrs by hematoxylin staining-based transwell invasion assay relative to control. Type of data set: functional.
The subject of data set [4] is C6661. The data set can be described thus: Down regulation of MMP-9 protein expression level in human C6661 cells at 4 to 10 umol/l incubated for 48 hrs by Western-blot analysis relative to control. In kind it is functional, cell-based.
For data set [5], the system named is C6661. The data set can be described thus: Down regulation of S100P protein expression level in human C6661 cells at 2 to 10 umol/l incubated for 48 hrs by Western-blot analysis relative to control. Type of data set: functional, cell-based.
The test system of data set [6] is C6661. In words: Antiproliferation activity against human C6661 cells assessed as reduction in cell viability at 1 umol/l incubated for 48 hrs by MTT assay. In kind it is functional, cell-based.
Data set [7] deals with CNE. In words: Antiproliferation activity against human CNE1 cells assessed as reduction in cell viability at 2 to 10 umol/l incubated for 48 hrs by MTT assay relative to control. Type of data set: functional, cell-based. For orientation: Tetrazolium assays rely on reduction of a dye to a coloured formazan, in cell work by metabolically active cells.
The test system of data set [8] is C6661. In words: Down regulation of S100P mRNA expression in human C6661 cells at 2 to 10 umol/l incubated for 48 hrs by RT-qPCR analysis relative to control. In kind it is functional, cell-based. In general terms: Real-time PCR tracks product formation cycle by cycle.
Data set [9] deals with C6661. The data set can be described thus: Down regulation of CD44 protein expression level in human C6661 cells at 1 umol/l incubated for 48 hrs by Western-blot analysis relative to control. Type of data set: functional, cell-based.
In data set [10] the test system is C6661. The data set can be described thus: Antimetastatic activity in human C6661 cells assessed as cell invasion at 6 umol/l after 48 hrs by hematoxylin staining-based transwell invasion assay relative to control. In kind it is functional.
Data set [11] deals with C6661. In words: Down regulation of MMP-2 protein expression level in human C6661 cells at 4 to 10 umol/l incubated for 48 hrs by Western-blot analysis relative to control. In kind it is functional, cell-based.
In data set [12] the test system is C6661. The data set can be described thus: Induction of apoptosis in human C6661 cells assessed as increase in apoptotic cells population at 4 umol/l incubated for 48 hrs by annexin V-FITC / propidium iodide staining based flow cytometry. Type of data set: functional.
The test system of data set [13] is C6661. In words: Antimetastatic activity in human C6661 cells assessed as reduction in cell invasion after 48 hrs by hematoxylin staining-based transwell invasion assay. Type of data set: functional.
For data set [14], the system named is C6661. The data set can be described thus: Down regulation of RAGE protein expression level in human C6661 cells at 4 to 10 umol/l incubated for 48 hrs by Western-blot analysis relative to control. Type of data set: functional, cell-based.
Data set [15] deals with C6661. The data set can be described thus: Down regulation of RAGE protein expression level in human C6661 cells at 1 umol/l incubated for 48 hrs by Western-blot analysis relative to control. Type of data set: functional, cell-based.
The subject of data set [16] is C6661. In words: Antimetastatic activity in human C6661 cells assessed as cell invasion at 4 umol/l after 48 hrs by hematoxylin staining-based transwell invasion assay relative to control. Type of data set: functional.
Data set [17] has as its system CNE. In words: Antiproliferation activity against human CNE1 cells assessed as reduction in cell viability at 10 umol/l incubated for 48 hrs by MTT assay. Type of data set: functional.
The test system of data set [18] is C6661. In words: Antimetastatic activity in human C6661 cells assessed as cell invasion at 2 umol/l after 48 hrs by hematoxylin staining-based transwell invasion assay relative to control. Type of data set: functional.
Data set [19] concerns C6661. The data set can be described thus: Antiproliferation activity against human C6661 cells assessed as reduction in cell viability at 10 umol/l incubated for 48 hrs by MTT assay relative to control. Type of data set: functional.
In data set [20] the test system is C6661. The data set can be described thus: Antiproliferation activity against human C6661 cells assessed as reduction in cell viability at 2 to 10 umol/l incubated for 48 hrs by MTT assay relative to control. Type of data set: functional, cell-based.
The test system of data set [21] is C6661. In words: Antimetastatic activity in human C6661 cells assessed as cell invasion at 1 umol/l after 48 hrs by hematoxylin staining-based transwell invasion assay relative to control. In kind it is functional.
A short description of data set [22]: Cytotoxicity against human NP69 cell assessed as reduction in cell viability at 2 to 10 umol/l incubated for 48 hrs by MTT assay.
Data set [23] concerns C6661. In words: Down regulation of MMP-2 protein expression level in human C6661 cells at 1 umol/l incubated for 48 hrs by Western-blot analysis relative to control. In kind it is functional, cell-based.
The test system of data set [24] is C6661. In words: Induction of apoptosis in human C6661 cells assessed as increase in apoptotic cells population at 6 umol/l incubated for 48 hrs by annexin V-FITC / propidium iodide staining based flow cytometry. Type of data set: functional.
Data set [25] has as its system C6661. The data set can be described thus: Down regulation of EGFR protein expression level in human C6661 cells at 4 to 10 umol/l incubated for 48 hrs by Western-blot analysis relative to control. Type of data set: functional, cell-based.
For data set [26], the system named is C6661. In words: Down regulation of CD44 protein expression level in human C6661 cells at 4 to 10 umol/l incubated for 48 hrs by Western-blot analysis relative to control. In kind it is functional, cell-based.
Data set [27] has as its system C6661. The data set can be described thus: Induction of apoptosis in human C6661 cells assessed as increase in apoptotic cells population at 10 umol/l incubated for 48 hrs by annexin V-FITC / propidium iodide staining based flow cytometry. Type of data set: functional. For orientation: A flow cytometer gives signals particle by particle.
The subject of data set [28] is C6661. In words: Down regulation of MMP-9 protein expression level in human C6661 cells at 1 umol/l incubated for 48 hrs by Western-blot analysis relative to control. In kind it is functional, cell-based.
Data set [29] deals with C6661. The data set can be described thus: Induction of apoptosis in human C6661 cells assessed as enhanced early apoptotic cells population at 1 to 10 umol/l incubated for 48 hrs by annexin V-FITC / propidium iodide staining based flow cytometry. Type of data set: functional.
In data set [30] the test system is C6661. In words: Down regulation of EGFR protein expression level in human C6661 cells at 1 umol/l incubated for 48 hrs by Western-blot analysis relative to control. In kind it is functional, cell-based.
Data set [31] has as its system CNE. The data set can be described thus: Antiproliferation activity against human CNE1 cells assessed as reduction in cell viability at 1 umol/l incubated for 48 hrs by MTT assay. Type of data set: functional, cell-based.
In data set [32] the test system is C6661. In words: Induction of apoptosis in human C6661 cells assessed as increase in apoptotic cells population at 2 umol/l incubated for 48 hrs by annexin V-FITC / propidium iodide staining based flow cytometry. In kind it is functional.

Activity calls are given as the source filed them. The calls are words filed in the database; no cut-off is given here.

Turning to `N#Cc1ccccc1SC=C1C(=O)CCCCC1=O`, the outcome in the data set with CNE [1] and in the data set with C6661 [2] was Active.
For the molecule `O=C1CCCCC(=O)C1=CSc1ccccc1Cl`, the result with CNE [1] and in the data set on C6661 [2] was Active.
As to `O=C1CCCCC(=O)C1=CSc1ccccc1C(F)(F)F`, the Activity with C6661 [3] was 11%; with C6661 [5], “Dose-dependent effect”; in the data set with C6661 [8], “Dose-dependent effect”; in the data set on C6661 [10], 22%; in the data set on C6661 [12], 23.45%; with C6661 [13], “Dose-dependent effect”. In addition, the Activity in the data set with C6661 [16] is 63%; in the data set with CNE [17], 24%; with C6661 [18] it was 89%; in the data set with C6661 [19] it was 26%; in the data set on C6661 [21] it was 99%; in data set [22] it was “Non-Toxic”. Moreover, the Activity with C6661 [24] is 46.24%; with C6661 [27], 61.78%; in the data set with C6661 [29], 2.76 - 69.43%; in the data set on C6661 [32] it was 10.54%. Further, the result in the data set on C6661 [4], in the data set with CNE [7], with C6661 [11], in the data set on CNE [1], in the data set with C6661 [14] and in the data set with C6661 [20] was Active. Also, the result in the data set with C6661 [2], in the data set with C6661 [25] and in the data set on C6661 [26] was Active. Further, the result in the data set with C6661 [6], with C6661 [9], in the data set on C6661 [15], in the data set with C6661 [23], with C6661 [28] and with C6661 [30] was inactive. The outcome in the data set on CNE [31] was inactive.
Consider `Cc1ncccc1SC=C1C(=O)CCCCC1=O`, for which the result in the data set on CNE [1] and in the data set on C6661 [2] was Active.
As for `O=C1CCCCC(=O)C1=CSc1ccccc1[N+](=O)[O-]`, the result in the data set with CNE [1] and with C6661 [2] was Active.
`O=C1CCCCC(=O)C1=CSc1ccccc1Br`: the result in the data set on CNE [1] and with C6661 [2] was Active.
Take `O=C1CCCCC(=O)C1=CSc1ccccc1F`: the result in the data set on CNE [1] and in the data set on C6661 [2] was Active.

Source of the values: ChEMBL document CHEMBL4340515, “Dione-thiophene conjugate inhibits proliferation and metastasis of nasopharyngeal carcinoma cells through calcium binding protein-P down-regulation” (Eur J Med Chem, 2019).
